Assay results reported in ChEMBL document CHEMBL1201862, “PubChem BioAssay data set” (2004).
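Tested at 5 concentrations; 48 h exposure; 96-well plates; endpoints linearly interpolated, else capped at highest concentration. The concentration for 50% growth inhibition is given as GI50.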 Activity calls are given as the source filed them. Rule as the data show it: active = GI50 up to about 1.1 µM and inactive = higher.

Assays:
Experiment in all cases: inhibition of tumour cell growth, NCI panel, 48 h
OVCAR-3 = test system: OVCAR-3
HCT-116 = test system: HCT-116
A549 = test system: A549
SK-MEL-2 = test system: SK-MEL-2
DLD-1 = test system: DLD-1
SNB-75 = test system: SNB-75
LXFL 529 = test system: LXFL 529
TK-10 = test system: TK-10
COLO 205 = test system: COLO 205
SF-268 = test system: SF-268
OVCAR-5 = test system: OVCAR-5
UO-31 = test system: UO-31
786-0 = test system: 786-0
SK-MEL-28 = test system: SK-MEL-28
SNB-78 = test system: SNB-78
NCI-H522 = test system: NCI-H522
SK-OV-3 = test system: SK-OV-3
U-251 = test system: U-251
MOLT-4 = test system: MOLT-4
NCI-H460 = test system: NCI-H460
HOP-62 = test system: HOP-62
SN12C = test system: SN12C
NCI-H226 = test system: NCI-H226
LOX IMVI = test system: LOX IMVI
IGROV-1 = test system: IGROV-1
HOP-92 = test system: HOP-92
M14 = test system: M14
SW-620 = test system: SW-620
SR = test system: SR
HCC 2998 = test system: HCC 2998
M19-MEL = test system: M19-MEL
SNB-19 = test system: SNB-19
XF498 = test system: XF498
HCT-15 = test system: HCT-15
ACHN = test system: ACHN
RXF 393 = test system: RXF 393
SK-MEL-5 = test system: SK-MEL-5
Malme-3M = test system: Malme-3M
UACC-62 = test system: UACC-62
CCRF-CEM = test system: CCRF-CEM
HT-29 = test system: HT-29
K562 = test system: K562
UACC-257 = test system: UACC-257
SF-295 = test system: SF-295
OVCAR-4 = test system: OVCAR-4
HL-60 = test system: HL-60
DMS-273 = test system: DMS-273
KM12 = test system: KM12
DMS-114 = test system: DMS-114
KM-20L2 = test system: KM-20L2
RPMI-8226 = test system: RPMI-8226
NCI-H23 = test system: NCI-H23
OVCAR-8 = test system: OVCAR-8
A498 = test system: A498
EKVX = test system: EKVX
CAKI-1 = test system: CAKI-1
SF-539 = test system: SF-539

Cc1ccc(C(O)/C(=N/N)c2nc3ccc([N+](=O)[O-])cc3nc2O)cc1 (stereo unspecified)
GI50 (OVCAR-3): > 100 µM (inactive)
GI50 (HCT-116): > 100 µM (inactive)
GI50 (A549): > 100 µM (inactive)
GI50 (SK-MEL-2): > 100 µM (inactive)
GI50 (DLD-1): > 100 µM (inactive)
GI50 (SNB-75): 43.7 µM (inactive)
GI50 (LXFL 529): 67 µM (inactive)
GI50 (TK-10): > 100 µM (inactive)
GI50 (COLO 205): > 100 µM (inactive)
GI50 (SF-268): 74.6 µM (inactive)
GI50 (OVCAR-5): > 100 µM (inactive)
GI50 (UO-31): 45.4 µM (inactive)
GI50 (786-0): > 100 µM (inactive)
GI50 (SK-MEL-28): > 100 µM (inactive)
GI50 (SNB-78): > 100 µM (inactive)
GI50 (NCI-H522): 17.8 µM (inactive)
GI50 (SK-OV-3): > 100 µM (inactive)
GI50 (U-251): > 100 µM (inactive)
GI50 (MOLT-4): > 100 µM (inactive)
GI50 (NCI-H460): > 100 µM (inactive)
GI50 (HOP-62): > 100 µM (inactive)
GI50 (SN12C): > 100 µM (inactive)
GI50 (NCI-H226): > 100 µM (inactive)
GI50 (LOX IMVI): > 100 µM (inactive)
GI50 (IGROV-1): > 100 µM (inactive)
GI50 (HOP-92): > 100 µM (inactive)
GI50 (M14): > 100 µM (inactive)
GI50 (SW-620): > 100 µM (inactive)
GI50 (SR): 58.7 µM (inactive)
GI50 (HCC 2998): 4.66 µM (inactive)
GI50 (M19-MEL): > 100 µM (inactive)
GI50 (SNB-19): > 100 µM (inactive)
GI50 (XF498): 95.5 µM (inactive)
GI50 (HCT-15): 28 µM
GI50 (ACHN): 47.3 µM (inactive)
GI50 (RXF 393): > 100 µM (inactive)
GI50 (SK-MEL-5): 43.2 µM (inactive)
GI50 (Malme-3M): > 100 µM (inactive)
GI50 (UACC-62): 46.8 µM (inactive)
GI50 (CCRF-CEM): 13.5 µM (inactive)
GI50 (HT-29): > 100 µM (inactive)
GI50 (K562): 22.6 µM (inactive)
GI50 (UACC-257): > 100 µM (inactive)
GI50 (SF-295): > 100 µM (inactive)
GI50 (OVCAR-4): > 100 µM (inactive)
GI50 (HL-60): 27 µM (inactive)
GI50 (DMS-273): 83.4 µM (inactive)
GI50 (KM12): 51.8 µM (inactive)
GI50 (DMS-114): 33.9 µM (inactive)
GI50 (KM-20L2): 57.5 µM (inactive)
GI50 (RPMI-8226): 40.6 µM (inactive)
GI50 (NCI-H23): > 100 µM (inactive)
GI50 (OVCAR-8): > 100 µM (inactive)

COc1cccc(C2=NC(C(C)C)CO2)c1OC (stereo unspecified)
GI50 (OVCAR-3): > 100 µM (inactive)
GI50 (A549): > 100 µM (inactive)
GI50 (SK-MEL-2): > 100 µM (inactive)
GI50 (DLD-1): > 100 µM (inactive)
GI50 (SNB-75): > 100 µM (inactive)
GI50 (LXFL 529): > 100 µM (inactive)
GI50 (TK-10): > 100 µM (inactive)
GI50 (COLO 205): > 100 µM (inactive)
GI50 (SF-268): > 100 µM (inactive)
GI50 (OVCAR-5): > 100 µM (inactive)
GI50 (A498): > 100 µM (inactive)
GI50 (UO-31): > 100 µM (inactive)
GI50 (EKVX): > 100 µM (inactive)
GI50 (CAKI-1): > 100 µM (inactive)
GI50 (786-0): > 100 µM (inactive)
GI50 (SK-MEL-28): > 100 µM (inactive)
GI50 (SNB-78): > 100 µM (inactive)
GI50 (NCI-H522): > 100 µM (inactive)
GI50 (SK-OV-3): > 100 µM (inactive)
GI50 (MOLT-4): > 100 µM (inactive)
GI50 (NCI-H460): > 100 µM (inactive)
GI50 (HOP-62): > 100 µM (inactive)
GI50 (SN12C): > 100 µM (inactive)
GI50 (NCI-H226): > 100 µM (inactive)
GI50 (LOX IMVI): > 100 µM (inactive)
GI50 (IGROV-1): > 100 µM (inactive)
GI50 (HOP-92): > 100 µM (inactive)
GI50 (M14): > 100 µM (inactive)
GI50 (SW-620): > 100 µM (inactive)
GI50 (HCC 2998): > 100 µM (inactive)
GI50 (M19-MEL): > 100 µM (inactive)
GI50 (SNB-19): > 100 µM (inactive)
GI50 (XF498): > 100 µM (inactive)
GI50 (HCT-15): > 100 µM
GI50 (ACHN): > 100 µM (inactive)
GI50 (SF-539): > 100 µM (inactive)
GI50 (RXF 393): > 100 µM (inactive)
GI50 (SK-MEL-5): > 100 µM (inactive)
GI50 (Malme-3M): > 100 µM (inactive)
GI50 (UACC-62): > 100 µM (inactive)
GI50 (CCRF-CEM): > 100 µM (inactive)
GI50 (HT-29): > 100 µM (inactive)
GI50 (K562): > 100 µM (inactive)
GI50 (UACC-257): > 100 µM (inactive)
GI50 (SF-295): > 100 µM (inactive)
GI50 (OVCAR-4): > 100 µM (inactive)
GI50 (HL-60): > 100 µM (inactive)
GI50 (DMS-273): > 100 µM (inactive)
GI50 (KM12): > 100 µM (inactive)
GI50 (DMS-114): > 100 µM (inactive)
GI50 (KM-20L2): > 100 µM (inactive)
GI50 (RPMI-8226): > 100 µM (inactive)
GI50 (NCI-H23): > 100 µM (inactive)
GI50 (OVCAR-8): > 100 µM (inactive)

COC(=O)N/N=C(\C)CC(=O)Nc1cccc([N+](=O)[O-])c1
GI50 (OVCAR-3): > 100 µM (inactive)
GI50 (HCT-116): > 100 µM (inactive)
GI50 (A549): > 100 µM (inactive)
GI50 (SK-MEL-2): > 100 µM (inactive)
GI50 (DLD-1): > 100 µM (inactive)
GI50 (SNB-75): > 100 µM (inactive)
GI50 (LXFL 529): > 100 µM (inactive)
GI50 (TK-10): > 100 µM (inactive)
GI50 (COLO 205): > 100 µM (inactive)
GI50 (SF-268): > 100 µM (inactive)
GI50 (OVCAR-5): > 100 µM (inactive)
GI50 (UO-31): > 100 µM (inactive)
GI50 (EKVX): > 100 µM (inactive)
GI50 (786-0): > 100 µM (inactive)
GI50 (SK-MEL-28): > 100 µM (inactive)
GI50 (SNB-78): > 100 µM (inactive)
GI50 (NCI-H522): > 100 µM (inactive)
GI50 (SK-OV-3): > 100 µM (inactive)
GI50 (U-251): > 100 µM (inactive)
GI50 (MOLT-4): > 100 µM (inactive)
GI50 (NCI-H460): > 100 µM (inactive)
GI50 (HOP-62): > 100 µM (inactive)
GI50 (NCI-H226): > 100 µM (inactive)
GI50 (LOX IMVI): > 100 µM (inactive)
GI50 (IGROV-1): > 100 µM (inactive)
GI50 (HOP-92): > 100 µM (inactive)
GI50 (M14): > 100 µM (inactive)
GI50 (SW-620): > 100 µM (inactive)
GI50 (HCC 2998): > 100 µM (inactive)
GI50 (M19-MEL): > 100 µM (inactive)
GI50 (XF498): > 100 µM (inactive)
GI50 (SF-539): > 100 µM (inactive)
GI50 (RXF 393): > 100 µM (inactive)
GI50 (SK-MEL-5): > 100 µM (inactive)
GI50 (Malme-3M): > 100 µM (inactive)
GI50 (UACC-62): > 100 µM (inactive)
GI50 (CCRF-CEM): > 100 µM (inactive)
GI50 (HT-29): > 100 µM (inactive)
GI50 (K562): > 100 µM (inactive)
GI50 (UACC-257): > 100 µM (inactive)
GI50 (SF-295): > 100 µM (inactive)
GI50 (HL-60): > 100 µM (inactive)
GI50 (DMS-273): > 100 µM (inactive)
GI50 (KM12): > 100 µM (inactive)
GI50 (DMS-114): > 100 µM (inactive)
GI50 (KM-20L2): > 100 µM (inactive)
GI50 (RPMI-8226): > 100 µM (inactive)
GI50 (NCI-H23): > 100 µM (inactive)
GI50 (OVCAR-8): > 100 µM (inactive)
